Consider one compound from US10722496B2, “2-iminobiotin for use in the treatment of brain cell injury” (Neurophyxia B.V., priority 2015, dated 2020).

Each structure is given as a SMILES string. Several values for one entry are separate records, joined by “and”; a condition that tells them apart may be missing. Identical values can stand only once.

A short description of data set [1]: Dose prediction simulations from covariate PK models. On the set-up: species or system human; Sim. AUCinf when dosing based on Crea0 from Table 6 / Sim. AUCinf when dosing based on eGFR: unit not given here. As for the experimental part:
Models were generated in order to determine the impact of dose adjustments and variability of AUC.
[…] and can be easily derived. (D=dose; CL=clearance)
An exploratory covariate analysis was performed looking at body weight, age, eGFR, SeCre, and Core temperature. The model used was as follows:
Dose correction for use at lower temperatures can be determined using the following equation: […]

A short description of data set [2]: Phase I clinical study pharmacokinetics, pulse i.v. infusion in healthy male subjects. The format is in vivo, human. The note with it: for mean AUC 4 hours: 6 pulses of 0.6 mg/kg in a 24-hour period. The source says:
The pharmacokinetics of 2-IB have been investigated in a Phase I clinical study in which the safety and tolerability of single and multiple doses of 2-IB pulse i.v. infusion in healthy male subjects were investigated. The study was a randomized, double-blind, placebo-controlled, dose escalation study with 3 groups of 6 healthy male subjects receiving a single i.v. infusion or pulsed i.v. infusions of 2-IB or placebo in 3 periods. Treatments were randomized such that each subject received 2 out of 3 foreseen dose levels of 2-IB and once placebo.

The next data set relates to PARP, akt and erkl/2. Nature of the data set: Western blotting for PARP, akt and erkl/2 under mild hypothermia. The format is cell-based, human. The note with it: post-hypoxic addition (30 ng/ml). As for the experimental part:
In-vitro hypoxia was induced for 7 hours using IMR-32 cell cultures. After the hypoxic insult, cultures were subjected to 25 hours of mild hypothermia (33.5° C.) and were incubated with or without 2-IB (10, 30, 50, 100 and 300 ng/ml). Cell morphology was evaluated by brightfield microscopy and cell damage was analyzed by LDH assays. Production of reactive oxygen species (ROS) was measured using fluorometric assays. Western blotting for PARP and phosphorylated as well as unphosphorylated akt and erkl/2 was performed.
In general terms: A western blot detects proteins with antibodies after separation by electrophoresis.

Data set [3] concerns piglet model of perinatal global hypoxia-ischemia (HI). The note with it: Peeters-Scholte et al., 2002; cited from earlier work.
Another data set concerns IMR-32 cells. Nature of the data set: Nitrate/nitrite Griess assay in culture media. The settings on record: data not shown. The format is cell-based, human. As for the experimental part:
(§1) In vitro hypoxia was induced in the cell cultures by using our recently described system with minor modifications (Huang et al., 2013b; Weber et al., 2015; Zitta et al., 2010). Enzyme stock solutions (100×) of catalase and glucose oxidase (both from Sigma-Aldrich) were prepared in cell culture medium (DMEM/F12, 1% FCS; final concentration: 120 U/ml and 2 U/ml respectively; Sigma-Aldrich) leading to a decrease of partial pressure of oxygen (pO2) below 10 mmHg within 5 minutes. Hypoxic conditions were confirmed by using a tissue oxygen pressure monitor (LICOX® CMP Oxygen Catheter; Integra, Plainsboro, USA). After 7 hours of hypoxia, the cells were washed twice with PBS (PAA) and fresh normoxic medium supplemented with solvent (citrate buffer 1%) or 2-IB (10, 30, 50, 100 and 300 ng/mL) was added to the cells. Investigations of cell damage, metabolic activity, ROS, hydrogen peroxide, nitrite/nitrate production, erkl/2, akt and stat5 phosphorylation as well as cell stress protein expression were performed with cell culture media or cell protein (FIG. 1).
Nitrate and nitrite concentrations were evaluated in culture media using a Griess colorimetric assay kit (Sigma-Aldrich) according to the manufacturer's instructions. Absorbance at 540 nm was measured in samples and standards using an ELISA reader (Tecan, Crailsheim, Germany).

The test system of the next data set is akt. Nature of the data set: Western blotting, akt phosphorylation. The class given is cell-based, human. As for the experimental part: as §1, with “Investigations of cell damage, metabolic activity, ROS, hydrogen peroxide, nitrite/nitrate production, erkl/2, akt and stat5 phosphorylation as well as cell stress protein expression were performed with cell culture media or cell protein (FIG. 1).” left out
Protein extraction was performed using RIPA buffer containing 150 mM sodium chloride, 1% NP-40, 1% sodium deoxycholate, 0.1% sodium dodecyl sulfate (SDS) and 50 mM Tris-HCl buffer (pH 7.6; all from Sigma-Aldrich) or alternatively M-PER buffer (Mammalian Protein Extraction Reagent; Pierce, Ill., USA). Protein concentrations were determined with Roti®-Quant assays (Carl Roth) and samples were stored at −20° C. until use. […] Images were taken and densitometrically analyzed with the software ImageJ (v1.41o, NIH).

In the case of `N=C1N[C@H]2[C@H](CS[C@H]2CCCCC(=O)O)N1` [2-IB, 2-iminobiotin], the “Sim. AUCinf when dosing based on 4.8 mg for all” value in data set [1] (Table 8, covariate model with Crea0, individual patient (ID 1-8)) was 220 and 292 and 765 and 847 and 642 and 993 and 427 and 266; in data set [1] (Table 10, covariate model with eGFR, individual patient (ID 1-8)) it was 306 and 302 and 814 and 873 and 484 and 856 and 472 and 269; in data set [1] (Table 10, Max of 8 patients) it was 873; in data set [1] (Table 10, Mean of 8 patients), 547; in data set [1] (Table 10, Median of 8 patients), 478; in data set [1] (Table 10, Min of 8 patients), 269. For the same compound, in data set [1] (Table 8, individual patient (ID 1-8)), the “Sim. AUCinf when dosing based on Crea0 from Table 6” value was 676 and 494 and 588 and 781 and 692 and 1070 and 722 and 327. The “Sim. AUCinf when dosing based on eGFR” value is 922 in data set [1] (Table 10, Max of 8 patients); 679 in data set [1] (Table 10, Mean of 8 patients); 713 in data set [1] (Table 10, Median of 8 patients); 415 in data set [1] (Table 10, Min of 8 patients); 802 and 465 and 626 and 806 and 596 and 922 and 800 and 415 in data set [1] (Table 10, individual patient (ID 1-8)). For the same compound, the “CL at 33° relative to the CL at 36°” value in data set [1] (given the same Crea0, temperature correction equation) is reported as 37%. Also, in data set [2] (0.6 mg/kg pulses, during the 24-hour dosing period), the “mean AUC 0-4 hours on average” value was “about 1305 ng·h/mL”. Besides, the “mean AUC 4 hours” value in data set [2] (after the first infusion) was found to be 1170 ng·h/mL; in data set [2] (after the last infusion), 1441 ng·h/mL. Moreover, the “cleavage of PARP, akt and erkl/2 phosphorylation” value in the data set on PARP, akt and erkl/2 is recorded as “did not influence cleavage or phosphorylation of the mentioned molecules”. Also, the neurological damage entry in data set [3] is listed as “reduces the amount of neurological damage”. Besides, the “nitrate and nitrite concentrations in culture media” value in the data set on IMR-32 cells was “neither nitrate nor nitrite concentrations were influenced by hypoxia or by 2-IB”. In addition, the phospho akt/akt in the data set with akt (hypoxia plus 30 ng/ml 2-IB) is reported as 0.60±0.33; with akt (normoxia plus 30 ng/ml 2-IB) it was 0.78±0.54.
